Measurements published in patent US8050868B2, “Methods for determining the organization of a cellular component of interest” (Cellomics, Inc., priority 2001, dated 2011).

What was measured:
[1] = tested on: 3T3 cells; experiment: Quantitative determination of microtubule polymer content (perinuclear ring mask, anti-tubulin immunofluorescence); assay type: cell-based; settings: two-hour treatment
Procedure: (§1) Cell culture/drug treatments: Cells were plated on 96-well plates in the appropriate cell culture media plus 10% FBS. […] Different plating densities and treatment times were explored to maximize the observable effects of the drugs.
Immunofluorescence: This included three steps: (1) Extraction of soluble (monomeric) tubulin by permeabilizing the cells with 0.5% Triton X-100 in a microtubule stabilizing buffer, in order to remove unpolymerized tubulin. (2) Fixation of intracellular protein with 4% formaldehyde. (3) Microtubule, DNA, and (optional) total cellular protein fluorescence labeling. […]
Image Analysis: Quantitative determination of microtubule polymer levels was performed using the methods described above. […] The nuclear image was dilated to produce a perinuclear ring mask, where cytoplasmic tubulin polymer was measured. […]
Quantitation of microtubule-associated intensity was carried out by summing the pixel intensities in the microtubule (MT) channel in the area covered by the perinuclear ring mask. […] From these measurements a MT polymerization index was calculated by normalizing the amount of MT fluorescence in a treated, “experimental” cell population, versus the amount of MT-associated fluorescence in an untreated, control cell population. […] Other methods of quantitation that were used are described below. […]

[2] = tested on: microtubules; experiment: Preliminary time-course and 12 hour dose-response evaluations of microtubule polymer mass; assay type: cell-based
Procedure: as §1
(§2) Immunofluorescence: This included three steps: (1) Extraction of soluble (monomeric) tubulin by permeabilizing the cells with 0.5% Triton X-100 in a microtubule stabilizing buffer, in order to remove unpolymerized tubulin. (2) Fixation of intracellular protein with 4% formaldehyde. (3) Microtubule, DNA, and (optional) total cellular protein fluorescence labeling. Microtubule staining was carried out by a standard immunofluorescence procedures using a primary mouse monoclonal antibody (anti-tubulin IgG), and affinity purified polyclonal secondary antibody (ALEXA FLUOR® 488-conjugated anti-mouse IgG (Molecular Probes, Inc. Eugene, OR)). After the cells were stained, DNA was labeled with 10 microgram/ml Hoechst 33342.
(§3) For cells triple-stained with tetramethylrhodamine iodoacetate (TMRIA) (Molecular Probes), Hoechst 33342, and ALEXA FLUOR® 488 (tubulin), or cells double stained with Hoechst 33342 and ALEXA FLUOR® 488, an XF57 filter block was used.
Image Analysis: Quantitative determination of microtubule polymer levels was performed using the methods described above. For analysis, a binary nuclear mask was made by thresholding the Hoechst image. The nuclear image was dilated to produce a perinuclear ring mask, where cytoplasmic tubulin polymer was measured. The ring mask allowed measurement of average intensity levels associated with the microtubule image. […] Other methods of image analysis that were used are described below.
Quantitation of microtubule-associated intensity was carried out by summing the pixel intensities in the microtubule (MT) channel in the area covered by the perinuclear ring mask. This integrated pixel intensity was then divided by the actual area of the perinuclear ring mask to arrive at the mean or “average” pixel intensity in the region covered by the perinuclear ring. From these measurements a MT polymerization index was calculated by normalizing the amount of MT fluorescence in a treated, “experimental” cell population, versus the amount of MT-associated fluorescence in an untreated, control cell population. This polymerization index represents a fraction or percentage of MT polymerization or depolymerization, relative to the untreated controls. Other methods of quantitation that were used are described below.
In addition, preliminary time-course and 12 hour dose-response evaluations using paclitaxel, nocodazole, and vinblastine were performed.

[3] = tested on: 3T3 cells; experiment: Histogram distribution of microtubule-associated pixel intensities (OD variance); assay type: cell-based; settings: individual 3T3 cells
From the text: Finally, histogram distribution of microtubule-associated pixel intensities in individual 3T3 cells was used to distinguish control cells from cells treated with nocodazole, paclitaxel, and vinblastine.

[4] = tested on: microtubules; experiment: Microtubule organization using concentric perinuclear ring masks; assay type: cell-based; settings: for effect on microtubule organization / pattern of microtubule-associated fluorescence: similarity to other treatments: five sequential dilations of perinuclear ring mask, duplicate wells
Procedure: Domains were defined by five sequential dilations of a perinuclear ring mask, and measurements were made of the mean microtubule-associated intensity, the standard deviation of the microtubule-associated intensity, the mean cytoplasm to nucleus fluorescence intensity ratio, and cell-normalized microtubule fluorescence intensity. For each drug treatment condition, experiments were performed in duplicate.
Finally, the slope of the best linear fit of the microtubule associated fluorescence was calculated as a function of the angular dilation. This way, it was possible to compare the rate of change of these parameters as a function of domain position.

[5] = tested on: Fibroblasts; experiment: Cell-based analysis of microtubule-targeting drugs, anti-tubulin immunocytochemistry, fibroblasts
Procedure: (§4) The mechanism of action of microtubule-targeting drugs was assessed in a cell component of interest field, represented as an image of tubulin-stained cells. Fibroblasts, epithelial cells,) and monocytes were left untreated ) or were treated with a variety of microtubule-targeting drugs. Cells were fixed and then stained with anti-tubulin immunocytochemistry, in order to determine how the different drugs affect morphological organization of microtubules.

[6] = tested on: epithelial cells; experiment: Cell-based analysis of microtubule-targeting drugs, anti-tubulin immunocytochemistry, epithelial cells
Procedure: as §4

[7] = tested on: monocytes; experiment: Cell-based analysis of microtubule-targeting drugs, anti-tubulin immunocytochemistry, monocytes
Procedure: as §4

[8] = tested on: tubulin; settings: single annular domain divided into 24 angular domains
[9] = tested on: tubulin; experiment: Population analysis of spatial organization of tubulin with five annular domains; settings: five perinuclear annular domains; n>20 cells; duplicate
[10] = tested on: microtubules; experiment: Peaks and valleys of pixel intensity around the perinuclear ring mask (modal classification)
[11] = tested on: microtubules; experiment: Microtubule organization using a single perinuclear ring mask and field based threshold measurements (spot count, spot area); assay type: cell-based; settings: min-max plates
Procedure: as §1, §2, §3

[12] = tested on: tubulin; experiment: Multi-domain analysis of tubulin organization (angular, transverse, annular domains); assay type: cell-based; settings: single cell
Procedure: Referring to FIG. 8, experiments were conducted to analyze tubulin organization in untreated (8A-D) and drug-treated (8E-H) fields of cells using angular (8B,F), transverse (8C, G) or annular domains (8D,H). […] For the purpose of analysis, cell boundaries were defined (8B-D, 8F-H) based on the reference component origin (which here is the nuclear perimeter). The component of interest field was thresholded to show the brightest pixels, and a single cell is shown for illustration purposes.
The spatial organization of intensity distribution within individual cells was then analyzed in an object of interest image, using annular domains (as in FIGS. […]). The data are shown in FIG. 9 as graphs of tubulin distribution in a single control (9A-C) and a vinblastine-treated cell (9D-F). Annular domains were created by sequential dilations of the nuclear perimeter. The position of the domain furthest away from the nucleus was given a value of one, and domain position increases in number with nuclear proximity. For each plot, measurements of tubulin distribution were normalized, by dividing the measurement obtained in a particular domain by the measurement obtained in the domain that is immediately adjacent to the nucleus. Intensity distribution within each domain was analyzed using a mathematical function to calculate the following: (1) the average pixel intensity (a measure proportional to tubulin mass) (9A, D); (2) texture difference moment (a measure proportional to tubulin periodicity) (9B, E); and (3) OD variance (a measure proportional to tubulin clustering) (9C,F). To determine the trends within each cell, data points were fitted with a linear function. […] For comparing cell populations under different treatment conditions, a number of cells in each condition can be analyzed as a sample, and the average slope within each sample used for statistical analysis.

[13] = nanomolar concentrations, 12 hour incubation
[14] = micromolar doses, 12 hour incubation

Structure (SMILES)	effect on microtubules and cell division [2, 13]	whether OD variance of the pixel intensity distribution distinguishes treated vs. control cell populations [3]	slope of best linear fit of microtubule associated fluorescence vs domain position: similarity to other treatments [4]	effect on microtubule organization [4]	pattern of microtubule-associated fluorescence: similarity to other treatments [4]	morphological organization of microtubules [5]	morphological organization of microtubules [6]	morphological organization of microtubules [7]	above threshold peaks in intensity distribution per cell, on average [8]	standard deviation of mean tubulin fluorescence: similarity of tubulin organization to other treatments [9]	type of spatial distribution of fluorescent pixel intensities at the nuclear periphery (mono-modal, non-modal, multi-modal) [10]	well average spot area [11]	well normalized spot counts [11]	other results
COC(=O)Nc1nc2ccc(C(=O)c3cccs3)cc2[nH]1 [nocodazole]	inhibit cell division without necessarily inducing the net depolymerization of microtubules	could distinguish	most similar to the slope of cells treated with colchicine	microtubule disruption	resembled colchicine treated cells	depolymerized the microtubules, and led to a diffuse staining of tubulin throughout the cytoplasm	induced microtubule depolymerization and led to diffuse staining of tubulin throughout the cell cytoplasm	led to microtubule depolymerization and led to diffuse tubulin staining	2 spots	more similar to colchicine-treated cells	Non-modal			cell-associated microtubule intensity ([1]; 5 micromolar): significant decrease; microtubule polymer mass [2, 13]: increase
CC(=O)O[C@H]1C(=O)[C@@]2(C)[C@H]([C@H](OC(=O)c3ccccc3)[C@]3(O)C[C@H](OC(=O)[C@H](O)[C@@H](NC(=O)c4ccccc4)c4ccccc4)C(C)=C1C3(C)C)[C@]1(OC(C)=O)CO[C@@H]1C[C@@H]2O [paclitaxel, Paclitaxel]		could distinguish	most similar to the slope of cells treated with vinblastine	formation of microtubule bundles or aggregates in the cytoplasm	resembled vinblastine treated cells	formation of microtubule bundles, and destroyed the focal organization of microtubules	induced formation of microtubule bundles in association with the cell edge	decreased microtubule staining in the nuclear region	4 spots	more similar to vinblastine-treated cells	Multimodal	increased	partly increased	cell-associated microtubule intensity ([1]; 1 micromolar): significant increase; quality of dose-response data ([2]; 12 hour dose-response, preliminary): excellent dose response data
CC[C@]1(O)C[C@@H]2CN(CCc3c([nH]c4ccccc34)[C@@](C(=O)OC)(c3cc4c(cc3OC)N(C)[C@H]3[C@@](O)(C(=O)OC)[C@H](OC(C)=O)[C@]5(CC)C=CCN6CC[C@]43[C@@H]65)C2)C1 [vinblastine]	depolymerized microtubules and inhibited microtubule polymerization	could not distinguish		formation of microtubule bundles or aggregates in the cytoplasm		depolymerized the microtubules and led to the formation of tubulin paracrystals	disrupted the microtubules and led to the formation of tubulin paracrystals	intermediate effect between nocodazole and paclitaxel	3 spots		Multimodal	significant decrease	partly increasing	effect on tubulin organization [2, 14]: induced the formation of tubulin paracrystals; microtubule polymer mass [2, 14]: apparent increase; distribution of brightest thresholded pixels over angular, transverse or annular domains ([12]; FIG. 8): broader distribution; OD variance (tubulin clustering) as a function of domain position ([12]; FIG. 9): marked decrease; texture difference moment (tubulin periodicity) as a function of distance from the nucleus ([12]; FIG. 9): centrifugal increase; trend of average pixel intensity (tubulin mass) as a function of annular domain position ([12]; linear fit, FIG. 9): positive slope
